The values below come from PMC9214036, “Design and Synthesis of Novel PRMT1 Inhibitors and Investigation of Their Effects on the Migration of Cancer Cell” (Frontiers in Chemistry, 2022).

In one data set the target is PRMT1 (Homo sapiens, UniProt Q99873). As to the kind of experiment: Radioactive PRMT1 methylation inhibition assay ([3H]-SAM, biotinylated histone H4 peptide). The format is biochemical. As to conditions: for inhibition at 10 µM: compound at 10 μM, read-out: % Inhibition of PRMT1 (at 10 μM); for IC50: radioactive methylation assay, read-out: IC50 (μM) against PRMT1. Here is the method: A series of 2,5-substituted furan and 2,4-substituted thiazole derivatives were synthesized and screened for their inhibitory effects on PRMT1 by using the radioactive PRMT1 methylation inhibition assay, which measured the amount of methyl groups that transferred from [^3H]-SAM to a biotinylated histone H4 peptide [ac-[…](Biotin)] (Tables 1–3).
Sequence of PRMT1 (Q99873 whole entry): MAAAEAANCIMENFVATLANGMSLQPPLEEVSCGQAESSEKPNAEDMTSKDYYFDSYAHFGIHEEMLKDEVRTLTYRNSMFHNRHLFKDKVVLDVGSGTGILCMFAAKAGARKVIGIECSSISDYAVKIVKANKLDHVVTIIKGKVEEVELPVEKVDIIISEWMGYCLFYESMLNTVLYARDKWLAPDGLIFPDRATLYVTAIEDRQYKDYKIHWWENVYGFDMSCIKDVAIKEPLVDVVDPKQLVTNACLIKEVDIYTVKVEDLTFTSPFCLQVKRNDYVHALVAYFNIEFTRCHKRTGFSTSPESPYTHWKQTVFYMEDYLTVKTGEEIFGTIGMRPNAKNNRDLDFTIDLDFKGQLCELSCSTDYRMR
The enzyme inhibitory activities and selectivity were measured by the radioisotope assay and AlphaLISA assay in ShangHai Chempartner Co., Ltd., according to the standard protocol. […] After 250 nL of compound solutions were added to the assay plate, 15 μl of PRMT1 enzyme solution or ×1 assay buffer for negative control was transferred to each well of prepared compound stock plates and the whole system (the final concentration of PRMT1 was 0.5 nM or 2 nM in the system) was incubated for 15 min at room temperature. […] Afterward, the reaction was stopped with the addition of 5 μl cold SAM solution to each well. Then, 25 μl volume per well was transferred to a Flashplate from the assay plate and incubated for a minimum of 1 h at room temperature. Finally, the Flashplate was washed with dH2O and 0.1% Tween-20 three times and then the reading plate in Microbeta using the program ^3H-Flashplate. The data were analyzed in GraphPad Prism 5 to obtain IC50 values.

By melting point is commonly meant the temperature, or range, at which the solid turns liquid. As a reminder, the inhibition is the drop in the measured response relative to a control, in per cent. In general, IC50 refers to the concentration at which inhibition is half-maximal.

Where a name gives a salt, the structure may show the parent alone.

In turn, `CNCCN(C)Cc1ccc(-c2ccc(C(N)=O)cc2)o1` (as salt: hydrochloride) [Compound 1a, N′-[5-(4-Formamide-phen-1-yl)-furan-2-yl-methyl]-N,N′-dimethylethylenediamine Hydrochloride] showed a melting point of 212.2 to 214.6 °C.

As to `CNCCN(C)Cc1ccc(-c2ccc(C(=O)NN)cc2)o1` (as salt: hydrochloride) [Compound 1b, N′-[5-(4-Formylhydrazide-phen-1-yl)-furan-2-yl-methyl]-N,N′-dimethylethylenediamine Hydrochloride], the melting point lay within 246.2 to 246.9 °C. On the same count and under the same terms, the same measure for `CNCCN(C)Cc1ccc(-c2ccc(C(N)=NO)cc2)o1` (as salt: hydrochloride) [Compound 1e, N′-[5-(4-N-Hydroxyamidino-phen-1-yl)-furan-2-yl-meth-yl]-N,N′-dimethylethylenediamine Hydrochloride]: 231.2 to 232.8 °C.

Regarding `CNCCN(C)Cc1ccc(-c2ccc(C(N)=NO)c(F)c2)o1` (as salt: hydrochloride) [Compound 1f, N′-[5-(3-Fluoro-4-N-hydroxyamidino-phen-1-yl)-furan-2-yl-methyl]-N,N′-dimethylethylenediamine Hydrochloride], the melting point lay in the range of 216.8 to 218.6 °C. The compound `CNCCN(C)Cc1ccc(-c2cccc(C(N)=NO)c2)o1` (as salt: hydrochloride) [Compound 1g, N′-[5-(3-N-Hydroxyamidino-phen-1-yl)-furan-2-yl-methyl]-N,N′-dimethylethylenediamine Hydrochloride] yielded a melting point of 60.8 to 63.2 °C. On the same count and under the same terms, the result for `CNCCN(C)Cc1ccc(-c2ccc(C(=N)N)c(F)c2)o1` (as salt: hydrochloride) [Compound 1i, N′-[5-(3-Fluoro-4-amidino-phen-1-yl)-furan-2-yl-methyl]-N,N′-dimethylethylenediamine Hydrochloride] reads 156.5 to 159.2 °C. Same read-out and setting: the result for `CNCCN(C)Cc1ccc(-c2ccc(Cl)c(C(=N)N)c2)o1` (as salt: hydrochloride) [Compound 1k, N′-[5-(3-Amidino-4-chloro-phen-1-yl)-furan-2-yl-methyl]-N,N′-dimethylethylenediamine Hydrochloride] reads 223 to 225 °C.

As to `CNCCN(C)Cc1ccc(-c2ccc(C(N)=O)cc2)o1` [Compound 1a, N′-[5-(4-Formamide-phen-1-yl)-furan-2-yl-methyl]-N,N′-dimethylethylenediamine Hydrochloride], the inhibition at 10 µM at PRMT1 turned out to be 10.6 ± 2.24%.

`CNCCN(C)Cc1ccc(-c2ccc(C(=O)NN)cc2)o1` [Compound 1b, N′-[5-(4-Formylhydrazide-phen-1-yl)-furan-2-yl-methyl]-N,N′-dimethylethylenediamine Hydrochloride]: the inhibition at 10 µM on PRMT1 amounted to 48 ± 0.02%. With `CNCCN(C)Cc1ccc(-c2ccc(N)cc2)o1.Cl` [Compound 1c, N′-[5-(4-Aminophenyl)-furan-2-yl-methyl]-N,N′-dimeth-ylethylenediamine Hydrochloride], the melting point fell in the range of 60.2 to 61.1 °C. Besides, on PRMT1, the inhibition at 10 µM amounted to 50 ± 0.18% and the IC50 amounted to 21.4 ± 12.8 µM. In the case of `CNCCN(C)Cc1ccc(-c2cccc(N)c2)o1.Cl` [Compound 1d, N′-[5-(3-Aminophenyl)-furan-2-yl-methyl]-N,N′-dimethylethylenediamine Hydrochloride], the melting point is 64.2 to 65.2 °C. The inhibition at 10 µM on PRMT1 turned out to be 35.99 ± 0.09%. With `CNCCN(C)Cc1ccc(-c2ccc(C(N)=NO)cc2)o1` [Compound 1e, N′-[5-(4-N-Hydroxyamidino-phen-1-yl)-furan-2-yl-meth-yl]-N,N′-dimethylethylenediamine Hydrochloride], on PRMT1, the inhibition at 10 µM was found to be 32%. Same read-out and setting: the same measure for `CNCCN(C)Cc1ccc(-c2ccc(C(N)=NO)c(F)c2)o1` [Compound 1f, N′-[5-(3-Fluoro-4-N-hydroxyamidino-phen-1-yl)-furan-2-yl-methyl]-N,N′-dimethylethylenediamine Hydrochloride]: 35.97 ± 0.2%; for `CNCCN(C)Cc1ccc(-c2cccc(C(N)=NO)c2)o1` [Compound 1g, N′-[5-(3-N-Hydroxyamidino-phen-1-yl)-furan-2-yl-methyl]-N,N′-dimethylethylenediamine Hydrochloride]: 39.98 ± 0.19%.

For the compound `CNCCN(C)Cc1ccc(-c2ccc(C(=N)N)c(F)c2)o1` [Compound 1i, N′-[5-(3-Fluoro-4-amidino-phen-1-yl)-furan-2-yl-methyl]-N,N′-dimethylethylenediamine Hydrochloride], on PRMT1, the inhibition at 10 µM was determined as 68 ± 0.02% and the IC50 came out at 4.42 ± 0.63 µM. Taken in the same sequence, the figures for `CNCCN(C)Cc1ccc(-c2ccc(Cl)c(C(=N)N)c2)o1` [Compound 1k, N′-[5-(3-Amidino-4-chloro-phen-1-yl)-furan-2-yl-methyl]-N,N′-dimethylethylenediamine Hydrochloride] were 76.5 ± 0.01% and 2.5 ± 0.91 µM. Turning to `CNCCN(C)Cc1ccc(-c2ccc(C(=N)N)nc2)o1.Cl` [Compound 1l, N′-[5-(2-Amidino-5-pyridyl)furan-2-yl-methyl]-N,N′-dimethylethylenediamine Hydrochloride], the melting point lay within 75.8 to 78.2 °C. On PRMT1, the inhibition at 10 µM was found to be 92.12 ± 0.28% and the half-inhibitory concentration (IC50) worked out at 1.29 ± 0.12 µM. For the same compound, the “PRMT1 IC50 compared with DB75” value at PRMT1 (fold weaker than DB75) was “four times weaker than DB75”. Besides, on PRMT1 (fold weaker than SAH), the “PRMT1 IC50 compared with SAH” value is given as “about two times weaker than SAH”. `CNCCN(Cc1ccc(-c2ccc(C(=N)N)nc2)o1)C1CC1.Cl` [Compound 1m, N-Methyl-N′-[5-(2-amidino-5-pyridyl)furan-2-yl-methyl]-N′-cyclopropylethylenediamine Hydrochloride] had a melting point of 95.9 to 98.3 °C. Also, at PRMT1, the inhibition at 10 µM is 48 ± 0.02% and the IC50 is 10.8 ± 1.3 µM.

As for `Cl.N=C(N)c1ccc(-c2ccc(CN3CCNCC3)o2)cn1` [Compound 1n, N′-[5-(2-Amidino-5-pyridyl)furan-2-yl-methyl]-piperazine Hydrochloride], the melting point lay in the range of 197.7 to 199.3 °C. Moreover, at PRMT1, the inhibition at 10 µM came to 73.51 ± 0.06% and the IC50 turned out to be 4.68 ± 0.26 µM. `CN(CCN)Cc1ccc(-c2ccc(C(=N)N)nc2)o1.Cl` [Compound 1o, N′-[5-(2-Amidino-5-pyridyl)furan-2-yl-methyl]-N′-methylethylenediamine Hydrochloride] returned a melting point of 223.4 to 224.8 °C. Moreover, at PRMT1, the inhibition at 10 µM stood at 89.02 ± 0.05% and the IC50 came out at 2.41 ± 0.18 µM.

In the case of `N=C(N)c1ccc(-c2ccc(-c3ccc(C(=N)N)cc3)o2)cc1` [DB75, furamidine, reference compound], on PRMT1, the inhibition at 10 µM worked out at 98.13 ± 0.27% and the IC50 is 0.31 ± 0.04 µM.
